Reference: ChEMBL document CHEMBL1201862, “PubChem BioAssay data set” (2004)
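Exposure lasted 48 hours, with cells grown in 96-well plates and compounds tested at five concentrations. The concentration for 50% growth inhibition is given as GI50.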 Calls of active or inactive are those of the source. Cut-off read from the data, not from the text of the source: active = GI50 up to about 1.1 µM and inactive = higher.

What was measured:
Experiment in all cases: NCI-60 cell line screen, 48 h
[1] = system: UACC-257
[2] = system: UACC-62
[3] = system: HCT-116
[4] = system: MDA-N
[5] = system: 786-0
[6] = system: MDA-MB-435
[7] = system: CAKI-1
[8] = system: KM12
[9] = system: NCI-H460
[10] = system: SK-MEL-28
[11] = system: SK-OV-3
[12] = system: M14
[13] = system: OVCAR-5
[14] = system: HCC 2998
[15] = system: OVCAR-8
[16] = system: NCI-H522
[17] = system: SN12C
[18] = system: SNB-75
[19] = system: HCT-15
[20] = system: HL-60

| Structure (SMILES) | GI50 [1] | GI50 [2] | GI50 [3] | GI50 [4] | GI50 [5] | GI50 [6] | GI50 [7] | GI50 [8] | GI50 [9] | GI50 [10] | GI50 [11] | GI50 [12] | GI50 [13] | GI50 [14] | GI50 [15] | GI50 [16] | GI50 [17] | GI50 [18] | GI50 [19] [µM] | GI50 [20] |
| --- | --- | --- | --- | --- | --- | --- | --- | --- | --- | --- | --- | --- | --- | --- | --- | --- | --- | --- | --- | --- |
| c1csc(-c2ccc(-c3cccc4nsnc34)s2)c1 | > 100 µM (inactive) | > 100 µM (inactive) | 94.8 µM (inactive) | 40.4 µM (inactive) | 39.5 µM (inactive) | > 100 µM (inactive) | 35.8 µM (inactive) | > 100 µM (inactive) | > 100 µM (inactive) | > 100 µM (inactive) | > 100 µM (inactive) | > 100 µM (inactive) | 71.1 µM (inactive) | > 100 µM (inactive) | > 100 µM (inactive) | 71.6 µM (inactive) | > 100 µM (inactive) | 49.3 µM (inactive) | > 100 |  |
| CCOC(=O)Cn1c(=O)c2nc(SC)sc2n(-c2ccccc2)c1=O | > 100 µM (inactive) | > 100 µM (inactive) | > 100 µM (inactive) | > 100 µM (inactive) | > 100 µM (inactive) |  |  | > 100 µM (inactive) | > 100 µM (inactive) | > 100 µM (inactive) |  | > 100 µM (inactive) | > 100 µM (inactive) | > 100 µM (inactive) | > 100 µM (inactive) |  | > 100 µM (inactive) | > 100 µM (inactive) | > 100 | > 100 µM (inactive) |
| CN1S(=O)(=O)N(C)P12(N=P(CP(=NP13(N(C)S(=O)(=O)N1C)N(C)S(=O)(=O)N3C)(c1ccccc1)c1ccccc1)(c1ccccc1)c1ccccc1)N(C)S(=O)(=O)N2C | > 100 µM (inactive) | > 100 µM (inactive) | > 100 µM (inactive) |  | > 100 µM (inactive) |  | > 100 µM (inactive) | > 100 µM (inactive) | > 100 µM (inactive) | > 100 µM (inactive) | > 100 µM (inactive) | > 100 µM (inactive) | > 100 µM (inactive) | > 100 µM (inactive) | > 100 µM (inactive) | > 100 µM (inactive) | > 100 µM (inactive) | > 100 µM (inactive) | > 100 | > 100 µM (inactive) |
| CSc1ccsc1-c1sc(-c2cc(SC)c(-c3sc(-c4cc(SC)c(-c5sccc5SC)s4)cc3SC)s2)cc1SC | > 100 µM (inactive) | 42.2 µM (inactive) | 75.9 µM (inactive) |  | 15.3 µM (inactive) | 20.9 µM (inactive) | 17.2 µM (inactive) | 65.2 µM (inactive) | > 100 µM (inactive) | > 100 µM (inactive) | > 100 µM (inactive) | > 100 µM (inactive) | > 100 µM (inactive) | > 100 µM (inactive) | > 100 µM (inactive) | 18.3 µM (inactive) | 42.3 µM (inactive) |  | > 100 | 0.356 µM (active) |
| O=c1[nH]n(CCc2ccccc2CCl)c2ccc([N+](=O)[O-])cc12 | 70.6 µM (inactive) | 45.8 µM (inactive) | 52.1 µM (inactive) |  | 93.8 µM (inactive) | 63.5 µM (inactive) | 91 µM (inactive) | 83.8 µM (inactive) | 57 µM (inactive) | > 100 µM (inactive) |  | 58.1 µM (inactive) | > 100 µM (inactive) | > 100 µM (inactive) | 71.3 µM (inactive) | 52.6 µM (inactive) | > 100 µM (inactive) |  | > 100 | 29.4 µM (inactive) |
| OC12CC/C(=N/OCc3ccccc3)CC1c1ccccc12 (stereo not given) | > 100 µM (inactive) | > 100 µM (inactive) | > 100 µM (inactive) |  | > 100 µM (inactive) |  | > 100 µM (inactive) | > 100 µM (inactive) | > 100 µM (inactive) | > 100 µM (inactive) | > 100 µM (inactive) | > 100 µM (inactive) | > 100 µM (inactive) | > 100 µM (inactive) | > 100 µM (inactive) | > 100 µM (inactive) | > 100 µM (inactive) | 39.7 µM (inactive) | > 100 | > 100 µM (inactive) |
| CCOC(=O)c1nc2ccccc2nc1Oc1ccc(F)cc1 | > 100 µM (inactive) | > 100 µM (inactive) | > 100 µM (inactive) | > 100 µM (inactive) | > 100 µM (inactive) | > 100 µM (inactive) |  | > 100 µM (inactive) | > 100 µM (inactive) | > 100 µM (inactive) | > 100 µM (inactive) | > 100 µM (inactive) | > 100 µM (inactive) |  | > 100 µM (inactive) |  | > 100 µM (inactive) | 11.4 µM (inactive) | > 100 |  |
| O=C(O)C(Cc1cc(I)c(O)c(I)c1)C1CCCCC1 (stereo not given) | 45.3 µM (inactive) | 33.1 µM (inactive) | 26.5 µM (inactive) | 43.5 µM (inactive) | 51.9 µM (inactive) | 60.8 µM (inactive) | 30.6 µM (inactive) | 30.4 µM (inactive) | 18.1 µM (inactive) | 59.7 µM (inactive) |  | 45.5 µM (inactive) | 49.2 µM (inactive) | 27.2 µM (inactive) | 38.6 µM (inactive) | 29.3 µM (inactive) | 32.2 µM (inactive) | 37.6 µM (inactive) | 31.7 |  |
